Assays:
Sarcoma 180 solid tumor = assay: Antitumor Effect with respect to Sarcoma 180 Solid Tumor Mouse; format: in vivo, ICR mice; conditions: 10 mg/kg in abdominal cavity, 10 days; day 11
Protocol: The antitumor effect test was conducted according to the method of the U. S. National Cancer Institute (NCI) (Cancer Chemotherapy Reports part 3, Vol. 3, 1 (1978)). Cell suspension of Sarcoma 180 cells (mouse sarcoma virus) which was employed as the tumor cell strain for transplant was prepared by diluting the cells in the Hank's solution at 2×10^7 cells/ml concentration ([…]), and ICR mice (10 mice per group) aged 5 weeks were injected subcutaneously with 0.2 ml of the cell suspension at the region of the back. Setting the day of the tumor transplantation as day 0. the mice were administered in the abdominal cavity with the compounds of the invention (Preparation Examples 1 and 37), 5-fluorouracyl, and the solution as the control for 10 days consecutively from day 1. On day 11, the mice were sacrificed, and portions of the solid tumor were removed so that weights thereof were measured. The dosage of each of the test samples was 10 mg/kg.

Brewer's Yeast Fever = assay: Antipyretic Action Test With Respect To Brewer's Yeast Fever; format: in vivo, rats
Protocol: The antipyretic action was measured as described in the following. A sensor was inserted into the rectum of each rats and the body temperature of one hour after the insertion was recorded as the basal body temperature. The rats were injected subcutaneously with 2 ml/body of 20% brewer's yeast at the region of back and, 18 hours after the injection, the intrafebrile body temperatures were measured. Rats who had shown not less than 0.75° C. of body temperature elevation were selected to whom the test samples was administered orally. The body temperatures of the selected rats were measured every one hour for the following 5 hours. The dosage of each of the test samples was 10 mg/kg.

Human COX-2 = biological target: T1, Human COX-2 (Homo sapiens, UniProt P35354); assay: Human COX-2 Inhibitory Activity Test (LPS-induced PGE2 in blood); format: cell-based
T1 construct: endogenous in cells; host or cells: heparinised whole blood of a healthy human donor pretreated with aspirin, stimulated with LPS (own knowledge: COX-2 is induced in monocytes)
T1 sequence (P35354 18-604): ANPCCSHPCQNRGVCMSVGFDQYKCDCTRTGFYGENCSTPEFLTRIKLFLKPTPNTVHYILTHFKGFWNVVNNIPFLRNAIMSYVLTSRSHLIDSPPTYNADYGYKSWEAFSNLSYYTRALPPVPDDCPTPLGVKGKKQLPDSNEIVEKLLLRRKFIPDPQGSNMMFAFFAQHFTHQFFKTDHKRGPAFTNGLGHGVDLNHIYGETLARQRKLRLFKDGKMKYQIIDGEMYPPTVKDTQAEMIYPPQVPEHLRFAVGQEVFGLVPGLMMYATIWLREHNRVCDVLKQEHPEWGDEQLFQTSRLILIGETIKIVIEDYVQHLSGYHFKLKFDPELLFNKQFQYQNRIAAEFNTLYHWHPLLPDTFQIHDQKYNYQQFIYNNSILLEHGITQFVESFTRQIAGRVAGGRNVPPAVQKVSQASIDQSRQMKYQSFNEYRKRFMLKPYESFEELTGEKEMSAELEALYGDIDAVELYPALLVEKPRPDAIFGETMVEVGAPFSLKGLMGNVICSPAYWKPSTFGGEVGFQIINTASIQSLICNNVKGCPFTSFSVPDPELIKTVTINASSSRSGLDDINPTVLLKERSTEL

Subcute Toxicity Test = format: in vivo, SD rats; conditions: 100 mg/kg once daily for 14 days, male and female rats
Protocol: The Subcute toxicity test was conducted as described in the following. SD rats (six each of male and female rats per group) were employed in the present test. The title compound (Preparation Example 1) was suspended in 0.5% methyl cellulose solution to be administered to the rats by a disposable feeding tube (manufactured by Fuchigami Kikai) once daily for 14 days. The dosage of the test samples was 100 mg/kg.

Acute Toxicity Test = format: in vivo, SD rats
Protocol: SD rats (3 rats per group) fasted overnight was employed in the present test. The title compound (Preparation Example 1) suspended in 1% methyl cellulose was administered to the rats. The test was conducted on the dosages of […]. […] It was indicted from the test result that the title compounds ensure the enhanced safety.

Compound: Cc1cc(-c2ccc(F)cc2)c(-c2ccc(S(C)(=O)=O)cc2)[nH]1 [Preparation Example 1, 4-(4-fluorophenyl)-2-methyl-5-(4-methylsulfonylphenyl)-1H-pyrrole]
- Tumor Weight (Sarcoma 180 solid tumor): 0.726 g
- Body temperature 1 Hour After (Brewer's Yeast Fever; 10 mg/kg oral, 1 hour after): 37.98 °C
- Body temperature 3 Hours After (Brewer's Yeast Fever; 10 mg/kg oral, 3 hours after): 37.10 °C
- Body temperature 5 Hours After (Brewer's Yeast Fever; 10 mg/kg oral, 5 hours after): 37.13 °C
- Intrafebrile Body Temperature (Brewer's Yeast Fever; 18 hours after yeast injection, before administration, 10 mg/kg group): 39.08 °C
- Basal Body Temperature (Brewer's Yeast Fever; one hour after sensor insertion, before yeast, 10 mg/kg group): 37.54 °C
- IC50 (Human COX-2; human blood, LPS, PGE2, IC50 from Hill Plot): 950 nM
- COX-1/COX-2 (Human COX-2; ratio of IC50 COX-1 to COX-2): 683
- general symptoms and weight increase (Subcute Toxicity Test): neither of a change in the general symptoms nor an adverse affect on the weight increase was noted
- death (Acute Toxicity Test; 500/kg, 1000/kg, 2000/kg, observed for a week): no death was noted in the test
- general symptoms after administration (Acute Toxicity Test; rat, in vivo): an analgesic action was noted after the administration, and the rats recovered to the normal state in one hour
- weight and general symptoms after one week (Acute Toxicity Test; rat, in vivo): the weight increased favorably and no abnormality was noted in the general symptoms

— US6294568A, “5-arylpyrrole derivatives” (priority 1997, dated 2001)
